Assay results as given in patent US20120115947A1, “COMBINATION/ASSOCIATION OF ADAPALENE AND BENZOYL PEROXIDE FOR TREATING ACNE LESIONS” (Galderma Research & Development, priority 2006, published 2012).

Experiments:
[1] = test system: patients suffering from acne; assay: Multi-centre, randomized, double-blind clinical study of adapalene + BPO topical gel versus monads and vehicle; type: in vivo; conditions: adapalene 0.1%, BPO 2.5%; for Reduction in lesions (all lesions): 12 weeks, gels once a day, rounded values of the text; for Degree of success (percentage of patients clear or almost clear): week 12, ITT (LOCF), gels once a day for 12 weeks
Description: A clinical study for confirmation of efficacy was performed for a topical gel combining adapalene+benzoyl peroxide (BPO). This gel has the following formulation (expressed as % weight/total weight): [table] Protocol: The clinical study was a multi-centre, randomized, double-blind study in parallel groups, to evaluate the tolerance and the efficacy of the above formulation, in comparison with its own individual active substances placed at the same doses in gels of the same formula as that of the fixed combination (individual formulae referred to as “monads”) and in comparison with the gel vehicle (placebo formula): adapalene gel (0.1%), BPO gel (2.5%) and vehicle gel. All the treatments were applied once a day for 12 weeks, to 517 patients suffering from acne. The main efficacy criteria were: the degree of success, defined as the percentage of patients considered as being “clear”, i.e., the patient has no more acne lesions (neither comedones nor inflammatory lesions), reflecting an improvement in the patient's clinical condition, or “almost clear” on the evaluation scale; the reduction of the percentage of inflammatory and non-inflammatory lesions after 12 weeks of treatment.

TPA-induced ear edema = assay: Anti-inflammatory evaluation in TPA-induced ear edema model; type: in vivo, Balb/c mice; conditions: single topical application, T+6 hours
Description: Evaluation of the Anti-Inflammatory in Ear Edema Model on Balb/c Mice
The study was carried out with […] ([…]) female 9 weeks aged Balb/c ByJlc mice.
The Edema was induced by a single application of 20 μl of TPA dissolved in acetone at 0.01%.
The treatment was administrated by single topical application of tested compounds dissolved in TPA at 0.01% (groups 3, 4, 5, 6 and 7) and dissolved in TPA 0.01%+BPO (groups 8, 9 and 10).
The treatments activity was measured by inflammation evaluation with ear thickness at T+6 hours.

Q: For O=C(OOC(=O)c1ccccc1)c1ccccc1 [BPO, benzoyl peroxide], which “Reduction in lesions (all lesions)” value [1] is on record?
A: 36%

Q: And the “Degree of success (percentage of patients clear or almost clear)” value [1]?
A: 15%

Q: And the “Anti-inflammatory effect on TPA-induced ear edema (in words)” value (TPA-induced ear edema)?
A: slight anti-inflammatory effect

Q: For COc1ccc(-c2ccc3cc(C(=O)O)ccc3c2)cc1C12CC3CC(CC(C3)C1)C2 [Adapalene, 6-[3-(1-Adamantyl)-4-methoxyphenyl]-2-naphthoic acid], which “Reduction in lesions (all lesions)” value [1] is on record?
A: 35%

Q: And the “Degree of success (percentage of patients clear or almost clear)” value [1]?
A: 16%

Q: And the “Anti-inflammatory effect on TPA-induced ear edema (in words)” value (TPA-induced ear edema)?
A: low anti-inflammatory effect
